Measured values as given in US10173991B2, “Sulfone amide linked benzothiazole inhibitors of endothelial lipase” (BRISTOL-MYERS SQUIBB COMPANY, priority 2014, dated 2019).

Molecular target: Endothelial lipase (EL) (Homo sapiens (Human), UniProt Q9Y5X9)
Experiment: Endothelial lipase (EL) enzymatic assay with fluorescent substrate A10070 in DMPG vesicles
Type: biochemical
Details: not given
Description: Endothelial lipase (EL) and hepatic lipase (HL) activities were measured using a fluorescent substrate, A10070, (Invitrogen, CA) doped into an artificial vesicle containing DMPG (Avanti Polar Lipids) as the excipient. Vesicles were prepared by combining 571 μL of 29 mM DMPG in a 1:1 mixture of MeOH and CHCl3 with 2000 μL of 1 mM A10070 in a 1:1 mixture of MeOH and CHCl3. The mixture was dried under nitrogen in multiple vials then resuspended in 20 mL total volume of 50 mM HEPES pH 8.0 buffer containing 50 mM NaCl and 0.2 mM EDTA. The sample was allowed to sit at room temperature for 15 min and then was sonicated 3×4 mins on ice with a Branson Sonicator using duty cycle 1. This preparation provides vesicles with a mole fraction of 0.11 for the FRET substrate.
The enzymatic assay was measured using 384-well white Optiplates. Each well contained 20 μL of assay buffer (50 mM HEPES pH 8.0, 50 mM NaCl and 1 mM CaCl2) and 0.25 μL of a DMSO solution containing a compound of interest. EL or HL (10 μL) was added and allowed to incubate with the compound for 30 min at 37° C. The source of EL was conditioned media obtained from HT-1080 cells that were transformed using RAGE technology (Athersys) to overexpress endogenous EL, and HL was partially purified from conditioned media obtained from COS cells overexpressing HL. The reaction was started by the addition of 10 μL of a 1:10 dilution of vesicles. The final total reaction volume was […]. The reaction rates were measured on a Gemini plate reader with an excitation wavelength of 490 nm and an emission wavelength of 530 nm. Readings were taken over a period of 60 minutes, and the slope between 300 and 900 secs of the readout was used to calculate the rate of the reaction.

Chain of Endothelial lipase (EL) (Q9Y5X9 21-500): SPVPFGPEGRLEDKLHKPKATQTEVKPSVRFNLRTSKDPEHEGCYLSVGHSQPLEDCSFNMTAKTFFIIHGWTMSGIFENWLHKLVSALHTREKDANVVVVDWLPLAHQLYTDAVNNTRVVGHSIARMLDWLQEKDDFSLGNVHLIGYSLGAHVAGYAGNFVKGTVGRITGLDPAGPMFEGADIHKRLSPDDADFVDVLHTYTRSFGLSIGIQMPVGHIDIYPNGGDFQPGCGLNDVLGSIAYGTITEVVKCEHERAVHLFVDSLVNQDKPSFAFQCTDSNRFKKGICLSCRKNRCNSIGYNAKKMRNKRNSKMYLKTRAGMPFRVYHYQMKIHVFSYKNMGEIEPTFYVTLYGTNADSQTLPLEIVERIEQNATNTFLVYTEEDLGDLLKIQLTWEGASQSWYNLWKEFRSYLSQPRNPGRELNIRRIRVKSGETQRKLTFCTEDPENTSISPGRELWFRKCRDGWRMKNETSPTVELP

| Structure (SMILES) | IC50 [nM] |
| --- | --- |
| COC(=O)Nc1ccc(-c2cc3sc(C(C(=O)NCC(=O)NC4CC4)S(=O)(=O)CC4CC4)nc3cc2F)cc1 (centres unmarked) [Example 2, methyl N-{4-[2-({[(cyclopropyl-carbamoyl)methyl]carbamoyl} (cyclopropyl-methanesulfonyl)methyl)-5-fluoro-1,3-benzothiazol-6-yl]phenyl} carbamate] | 3 |
| CS(=O)(=O)C(C(=O)NCC(=O)NC1CC1)c1nc2cc(F)c(-c3ccc(NC(N)=O)cc3)cc2s1 (centres unmarked) [Example 3, 2-{6-[4-(carbamoyl-amino)phenyl]-5-fluoro-1,3-benzothiazol-2-yl}-N-[(cyclopropyl-carbamoyl)methyl]-2-methanesulfonyl-acetamide] | 3 |
| COCCS(=O)(=O)C(C(=O)NCC(=O)NC1CC1)c1nc2cc(F)c(-c3ccc(NC(N)=O)cc3)cc2s1 (centres unmarked) [Example 4, 2-{6-[4-(carbamoyl-amino)phenyl]-5-fluoro-1,3-benzothiazol-2-yl}-N-[(cyclopropyl-carbamoyl)methyl]-2-(2-methoxy-ethanesulfonyl) acetamide] | 9 |
| CC(C)S(=O)(=O)C(C(=O)NCC(=O)NC1CC1)c1nc2cc(F)c(-c3ccc(NC(N)=O)cc3)cc2s1 (centres unmarked) [Example 5, 2-{6-[4-(carbamoyl-amino)phenyl]-5-fluoro-1,3-benzothiazol-2-yl}-N-[(cyclopropyl-carbamoyl)methyl]-2-(propane-2-sulfonyl) acetamide] | 9 |
| CN(C)C(=O)Nc1ccc(-c2cc3sc(C(C(=O)NCC(=O)NC4CC4)S(=O)(=O)CCC(F)(F)F)nc3cc2F)cc1 (centres unmarked) [Example 6, N-[(cyclopropyl-carbamoyl)methyl]-2-(6-{4-[(dimethyl-carbamoyl)amino]phenyl}-5-fluoro-1,3-benzothiazol-2-yl)-2-(3,3,3-trifluoropropane-sulfonyl) acetamide] | 3 |
| NC(=O)Nc1ccc(-c2cc3sc(C(C(=O)NCC(=O)NC4CC4)S(=O)(=O)CCC(F)(F)F)nc3cc2F)cc1 (centres unmarked) [Example 7, 2-{6-[4-(carbamoyl-amino)phenyl]-5-fluoro-1,3-benzothiazol-2-yl}-N-[(cyclopropyl-carbamoyl)methyl]-2-(3,3,3-trifluoropropane-sulfonyl) acetamide] | 5 |
| CS(=O)(=O)C(C(=O)NCC(=O)NC1CC1)c1nc2cc(-c3ccc(NC(=O)OCc4ccccc4)cc3)c(F)cc2s1 (centres unmarked) [Example 8, benzyl N-{4-[2-({[(cyclopropyl-carbamoyl)methyl]carbamoyl} (methane-sulfonyl)methyl)-6-fluoro-1,3-benzothiazol-5-yl]phenyl} carbamate] | 1 |
| O=C(CNC(=O)C(c1nc2cc(-c3ccc(NC(=O)OCc4ccccc4)cc3)c(F)cc2s1)S(=O)(=O)CCC(F)(F)F)NC1CC1 (centres unmarked) [Example 9, benzyl N-{4-[2-({[(cyclopropyl-carbamoyl)methyl]carbamoyl} (3,3,3-trifluoro-propanesulfonyl)methyl)-6-fluoro-1,3-benzothiazol-5-yl]phenyl} carbamate] | 1 |
| COCCS(=O)(=O)C(C(=O)NCC(=O)NC1CC1)c1nc2cc(-c3ccc(NC(=O)OCc4ccccc4)cc3)c(F)cc2s1 (centres unmarked) [Example 10, benzyl N-{4-[2-({[(cyclopropyl-carbamoyl)methyl]carbamoyl}(2-methoxyethane-sulfonyl)methyl)-6-fluoro-1,3-benzothiazol-5-yl]phenyl} carbamate] | 1 |
| O=C(CNC(=O)C(c1nc2cc(-c3ccc(NC(=O)OCc4ccccc4)cc3)c(F)cc2s1)S(=O)(=O)C1CC1)NC1CC1 (centres unmarked) [Example 11, benzyl N-(4-{2-[(cyclopropane-sulfonyl) ({[(cyclopropyl-carbamoyl)methyl]carbamoyl})methyl]6-fluoro-1,3-benzothiazol-5-yl}phenyl) carbamate] | 1 |
| O=C(CNC(=O)C(c1nc2cc(-c3ccc(F)nc3)ccc2s1)S(=O)(=O)CCC(F)(F)F)NC1CC1 (centres unmarked) [Example 12, N-[(cyclopropyl-carbamoyl)methyl]-2-[5-(6-fluoropyridin-3-yl)-1,3-benzothiazol-2-yl]-2-(3,3,3-trifluoropropane-sulfonyl) acetamide] | 7 |
| O=C(CNC(=O)C(c1nc2cc(-c3ccc(F)nc3)ccc2s1)S(=O)(=O)Cc1ccc(F)cc1)NC1CC1 (centres unmarked) [Example 13, N-[(cyclopropyl-carbamoyl)methyl]-2-[(4-fluorophenyl)methanesulfonyl]-2-[5-(6-fluoropyridin-3-yl)-1,3-benzothiazol-2-yl]acetamide] | 15 |
| O=C(CNC(=O)C(c1nc2cc(-c3ccc(F)nc3)ccc2s1)S(=O)(=O)Cc1ccccc1)NC1CC1 (centres unmarked) [Example 14, N-[(cyclopropyl-carbamoyl)methyl]-2-[5-(6-fluoropyridin-3-yl)-1,3-benzothiazol-2-yl]-2-phenylmethane-sulfonylacetamide] | 23 |
| O=C(CNC(=O)C(c1nc2cc(-c3ccc(F)nc3)ccc2s1)S(=O)(=O)Cc1ccc(F)nc1)NC1CC1 (centres unmarked) [Example 15, N-[(cyclopropyl-carbamoyl)methyl]-2-[5-(6-fluoropyridin-3-yl)-1,3-benzothiazol-2-yl]-2-[(6-fluoropyridin-3-yl)methanesulfonyl] acetamide] | 29 |
| CC(C)S(=O)(=O)C(C(=O)NCC(=O)NC1CC1)c1nc2cc(-c3ccc(F)nc3)ccc2s1 (centres unmarked) [Example 16, N-[(cyclopropyl-carbamoyl)methyl]-2-[5-(6-fluoropyridin-3-yl)-1,3-benzothiazol-2-yl]-2-(propane-2-sulfonyl) acetamide] | 39 |
| O=C(CNC(=O)C(c1nc2cc(-c3ccc(F)nc3)ccc2s1)S(=O)(=O)Cc1ccc(C(F)(F)F)cc1)NC1CC1 (centres unmarked) [Example 17, N-[(cyclopropyl-carbamoyl)methyl]-2-[5-(6-fluoropyridin-3-yl)-1,3-benzothiazol-2-yl]-2-{[4-(trifluoromethyl)phenyl]methanesulfonyl} acetamide] | 46 |
| O=C(CNC(=O)C(c1nc2ccc(-c3ccc(F)nc3)cc2s1)S(=O)(=O)Cc1ccccc1F)NC1CC1 (centres unmarked) [Example 18, N-[(cyclopropyl-carbamoyl)methyl]-2-[(2-fluorophenyl)methanesulfonyl]-2-[6-(6-fluoropyridin-3-yl)-1,3-benzothiazol-2-yl]acetamide] | 253 |
| COc1ccc(OCCCS(=O)(=O)C(C(=O)NCC(=O)NC2CC2)c2nc3ccc(-c4ccc(F)nc4)cc3s2)cc1 (centres unmarked) [Example 19, N-[(cyclopropyl-carbamoyl)methyl]-2-[6-(6-fluoropyridin-3-yl)-1,3-benzothiazol-2-yl]-2-[3-(4-methoxyphenoxy)propanesulfonyl] acetamide] | 7 |
| N#Cc1cccc(CS(=O)(=O)C(C(=O)NCC(=O)NC2CC2)c2nc3ccc(-c4ccc(F)nc4)cc3s2)c1 (centres unmarked) [Example 20, 2-[(3-cyanophenyl)methanesulfonyl]-N-[(cyclopropyl-carbamoyl)methyl]-2-[6-(6-fluoropyridin-3-yl)-1,3-benzothiazol-2-yl]acetamide] | 46 |

Same assay, conditions: EL from conditioned media of HT-1080 cells; 30 min preincubation at 37° C.

| Structure (SMILES) | IC50 [nM] |
| --- | --- |
| CS(=O)(=O)C(C(=O)NCC(=O)NC1CC1)c1nc2cc(F)c(-c3ccc(NC(=O)OCc4ccccc4)cc3)cc2s1 (centres unmarked) [Example 1, Benzyl N-{4-[2-({[(cyclopropylcarbamoyl)methyl]carbamoyl}(methanesulfonyl)methyl)-5-fluoro-1,3-benzothiazol-6-yl]phenyl}carbamate] | 3 |
